Experimental data taken from ChEMBL document CHEMBL1150765, “Clavatadine A, a natural product with selective recognition and irreversible inhibition of factor XIa” (J Med Chem, 2008).

What was measured:
[1] = biological target: Coagulation factor IX (Homo sapiens) (UniProt P00740); experiment: Inhibition of factor 9a at 222 uM
Coagulation factor XI = Coagulation factor XI (Homo sapiens, UniProt P03951); experiment: Inhibition of factor 11a
Chain of Coagulation factor XI (P03951 19-387 limits assumed): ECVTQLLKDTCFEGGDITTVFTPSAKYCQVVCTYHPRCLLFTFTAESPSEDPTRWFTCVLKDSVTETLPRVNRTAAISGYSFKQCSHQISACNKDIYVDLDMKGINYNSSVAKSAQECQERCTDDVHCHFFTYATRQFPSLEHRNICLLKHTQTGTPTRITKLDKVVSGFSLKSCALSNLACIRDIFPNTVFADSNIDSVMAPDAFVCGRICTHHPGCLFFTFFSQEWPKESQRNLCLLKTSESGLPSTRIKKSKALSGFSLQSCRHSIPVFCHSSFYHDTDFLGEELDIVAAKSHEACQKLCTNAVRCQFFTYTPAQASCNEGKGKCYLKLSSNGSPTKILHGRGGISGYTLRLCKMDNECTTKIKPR
Chain of Coagulation factor XI (P03951 388-625 limits assumed): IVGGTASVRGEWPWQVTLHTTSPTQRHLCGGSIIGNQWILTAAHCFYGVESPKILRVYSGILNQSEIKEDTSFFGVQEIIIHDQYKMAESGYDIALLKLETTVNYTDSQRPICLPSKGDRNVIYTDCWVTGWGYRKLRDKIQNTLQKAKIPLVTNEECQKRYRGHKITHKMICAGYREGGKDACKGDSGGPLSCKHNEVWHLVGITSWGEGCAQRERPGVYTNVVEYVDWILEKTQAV

Chain of Coagulation factor IX (Homo sapiens) (P00740 47-191 limits assumed): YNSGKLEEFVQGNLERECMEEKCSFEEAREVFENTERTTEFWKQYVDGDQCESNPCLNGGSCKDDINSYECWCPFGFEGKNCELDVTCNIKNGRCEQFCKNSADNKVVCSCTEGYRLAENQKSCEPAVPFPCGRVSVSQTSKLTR
Chain of Coagulation factor IX (Homo sapiens) (P00740 227-461 limits assumed): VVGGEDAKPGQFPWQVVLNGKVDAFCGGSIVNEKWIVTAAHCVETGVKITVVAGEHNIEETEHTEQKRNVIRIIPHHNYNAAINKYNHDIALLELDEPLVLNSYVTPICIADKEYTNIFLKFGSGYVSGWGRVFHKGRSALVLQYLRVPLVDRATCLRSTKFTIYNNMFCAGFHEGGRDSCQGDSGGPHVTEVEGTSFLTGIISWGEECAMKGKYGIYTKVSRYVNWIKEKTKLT

N=C(N)NCCCCNC(=O)Oc1c(Br)cc(O)c(CC(=O)O)c1Br [CLAVATADINE A]
inhibition [1]: < 5%
IC50 (Coagulation factor XI): 1.3 µM

N=C(N)NCCCCNC(=O)Oc1cc(Br)c(O)c(Br)c1CC(N)=O [CLAVATADINE B]
inhibition [1]: < 5%
IC50 (Coagulation factor XI): 27 µM
